Source: patent US20050169908A1, “Use of aerosolized antithrombin to treat acute lung injury” (priority 2004, published 2005)

Columns and labels:
[1] = system: smoke inhalation injury followed by pneumonia; assay: Plasma nitrate/nitrite (NOx) levels; assay type: in vivo, sheep; conditions: over 24 h; vs saline-treated group (FIG. 6)
Text: (§1) The Animal Care and Use Committee of The University of Texas Medical Branch approved the experiments reported in this manuscript. All animals were handled within the guidelines established by the American Physiological Society and the National Institutes of Health. Twenty four female sheep were surgically prepared for study under halothane anesthesia as previously described (9). After measurement of baseline cardiovascular data, sheep received a combination injury of smoke inhalation and bacteria instillation as previously described (3).
(§2) Briefly, P. aeruginosa (5×10^9/kg) was instilled intrabronchially after the cotton smoke exposure (4 sets of 12 breaths, <40° C.). After the smoke inhalation and bacterial instillation, animals were randomly assigned for the […] treatment groups, ATIII nebulization group (n=6), argatroban-nebulization group (n=8), and saline nebulization control group (n=10). All animals were mechanically ventilated with 100% oxygen throughout the 24-h study (Tidal volume 12-15 ml/kg, 30 breaths/min, PEEP 7.5 cmH2O). Tidal volume was adjusted to maintain PaCO2 normal. The Ringer's lactate solution was injected in sufficient volume to prevent the hematocrit from rising. […]
The concentration of NOx (total amount of nitric oxide metabolites) in plasma was measured with a chemiluminescent NO analyser (Antek, model 7020) as previously described (11).

P. aeruginosa = assay: Arterial blood culture for bacteremia; assay type: in vivo, sheep; conditions: during the 24 h study; no statistical difference from saline-treated group
Text: as §1
as §2, with “rising. Initially, 2 ml/kg/h of Ringer's lactate was infused, and we adjusted the in rate up to 10 ml/kg/h based on the hematocrit levels.” for “rising.”

[2] = Blood counts (WBC, platelets) after injury; assay type: in vivo, sheep
Text: as §1
(§3) Briefly, P. aeruginosa (5×10^9/kg) was instilled intrabronchially after the cotton smoke exposure (4 sets of 12 breaths, <40° C.). After the smoke inhalation and bacterial instillation, animals were randomly assigned for the two treatment groups, ATIII nebulization group (n=6), argatroban-nebulization group (n=8), and saline nebulization control group (n=10). All animals were mechanically ventilated with 100% oxygen throughout the 24-h study (Tidal volume 12-15 ml/kg, 30 breaths/min, PEEP 7.5 cmH2O). Tidal volume was adjusted to maintain PaCO2 normal. The Ringer's lactate solution was injected in sufficient volume to prevent the hematocrit from rising. Initially, 2 ml/kg/h of Ringer's lactate was infused, and we adjusted the in rate up to 10 ml/kg/h based on the hematocrit levels.
(§4) Recombinant human antithrombin (rhAT) was dissolved in distilled water (250 mg/30 mL). Then, the ATIII solution was mixed with 60 mL saline and 15 mL of the mixed solution containing 41.7 mg ATIII was nebulized every 4 hrs. […] The control group received 15 ml saline nebulization as the same fashion. The solutions were nebulized by an ultrasonic nebulizer (Ultra-Neb99, DeVilbiss Co., Somerset, Pa.), which was connected to the tracheobronchial tree as shown previously (10). The size of the particles obtained by the nebulizer is reported less than 4 microns. The nebulization was started one hour after the insult and every 4 hrs thereafter.
Arterial blood was cultured to test the bacteremia (Septi-check, Becton Dickinson, Sparks, Md.). Heparinized blood samples were carefully withdrawn from the femoral artery catheter at baseline and at 3, 6, 12, and 24 hrs.

[3] = system: smoke inhalation injury followed by pneumonia; assay: Microscopic evaluation of airway obstruction by cast formation; assay type: in vivo, sheep
Text: as §1, §3
as §4, with “The nebulization was started one hour after the insult and every 4 hrs thereafter.” left out
(§5) A lung slice from the right lower lobe was histologically scored by a pathologist who was unaware of animal grouping (5). […] Airway obstruction by cast formation was also evaluated as previously described (3).

[4] = system: smoke inhalation injury followed by pneumonia; assay: Pulmonary gas exchange (PaO2/FiO2 ratio, pulmonary shunt fraction) after smoke inhalation and pneumonia in sheep; assay type: in vivo; conditions: nebulized every 4 hrs, 24-h study; vs saline-treated group (FIG. 1B)
Protocol: Recombinantly produced ATIII was dissolved in saline (42 mg/ml). Female sheep (n=24) were used. After the 48 breaths of cotton smoke (<40° C.), P. aeruginosa (5×10^11 CFU) was instilled in the both lungs. All the animals were mechanically ventilated by 100% O2 (Tidal volume 15 ml/kg, 30 breaths/min, PEEP 5 cmH2O). […] No animals died during the study.
as §1
Briefly, P. aeruginosa (5×10^9/kg) was instilled intrabronchially after the cotton smoke exposure (4 sets of 12 breaths, <40° C.). […]
(§6) The statistical software StatView 5.0 (SAS Institute, Cary, N.C.) was used to perform the analysis. Data are expressed as means±SEM. Repeated measured analysis of variance (ANOVA) or ANOVA with Tuckey's post hoc test was used to compare data among the groups. […]

[5] = system: smoke inhalation injury followed by pneumonia; assay: Lung histopathology scores 24 h after smoke and bacterial challenge; assay type: in vivo, sheep; conditions: vs saline control
Text: as §1, §3
Recombinant human antithrombin (rhAT) was dissolved in distilled water (250 mg/30 mL). Then, the ATIII solution was mixed with 60 mL saline and 15 mL of the mixed solution containing 41.7 mg ATIII was nebulized every 4 hrs. […] The control group received 15 ml saline nebulization as the same fashion. […]
as §5, §6

[6] = 24 h, vs saline treated group (FIG. 4)

## CC1CNc2c(cccc2S(=O)(=O)N[C@@H](CCCNC(=N)N)C(=O)N2CC[C@@H](C)C[C@@H]2C(=O)O)C1 (stereo partly shown) [Argatroban]
[1]
  increase in plasma NOx levels: not a statistical difference
P. aeruginosa
  animals with P. aeruginosa detected in arterial blood culture: 0%
[2]; 24 hrs after injury, Mean ± SE
  Platelets: 297 ± 78 ×10^3/μL
  WBC: 2.08 ± 0.81 ×10^3/μl
[2]; in words, Table 1
  decrease in leukocyte number 24 h after the injury: did not affect
  decrease in platelet count after the injury: slightly prevented
[3]; [6]
  airway obstruction in bronchi levels: inhibited the obstruction significantly
  airway obstruction in bronchiole levels: inhibited the obstruction significantly
[3]; argatroban vs rhAT
  prevention of cast formation (airway obstruction), comparison of the two agents: more effective in preventing cast formation than rhAT
[4]
  increase in pulmonary shunt fraction after the insult: significantly less
[5]
  hemorrhage score: not higher but less
  individual histology scores in congestion, edema, inflammation, and hemorrhage (scale 0-4): almost the same scores as saline control
  total histology score (maximum 16): did not attenuate
